According to US5604233A, “Lactone stable formulation of 7-ethyl camptothecin and methods for uses thereof” (priority 1994, dated 1997):
“Also recorded” adds a separate entry of the source. Where two headings read alike, the source gives them in different places.

What was measured:
preclinical tumor models = settings: cited from earlier work
[1] = mice; cited from earlier work
[2] = Phase II; cited from earlier work
Small Cell Lung Cancer = settings: 100 mg/m^2/week; cited from earlier work
human tumors = settings: nude mice xenografts; cited from earlier work
[3] = tested on: Refractory or Relapsed Small Cell Lung Ca; settings: 100 mg/m^2 weekly; cited from earlier work
[4] = tested on: Untreated Non Small Cell Lung Cancer; settings: 100 mg/m^2 weekday; cited from earlier work
[5] = Fractional amounts of lactone species of CPT-11 and HECPT (Rothenburg et al.); assay type: in vivo, human; settings: Table 4
Excerpt: Fractional Amounts of Lactone Species of CPT-11 and HECPT as
Function of Increasing Single Dose LV. From Rothenburg et al.

Cervical cancer = settings: 100 mg/m^2 weekly, 150 mg/m^2 weeks; cited from earlier work
Colon cancer = settings: 100 mg/m^2/week or 150 mg/m^2/Q 2 wks; cited from earlier work
[6] = cited from earlier work
[7] = cited from earlier work; for sporadic toxicities: relative to parent compound
[8] = cited from earlier work; remark: listed apart in the source
Tumor = settings: cited from earlier work; for Toxicity: * dose limiting toxicity
[9] = cited from earlier work; remark: listed apart in the source
[10] = tested on: Topoisomerase I purified from human colon carcinoma cells or calf thymus; settings: cited from earlier work
Leukemia/Lymphoma = settings: cited from earlier work
[11] = after CPT-11 versus HECPT administration; cited from earlier work
[12] = Pharmacokinetics of CPT-11 and HECPT, 5-day continuous infusion of CPT-11 (Ohe et al.); assay type: in vivo, human; settings: e.g., above 30 mg/m^2/d
Excerpt: Initially, patients may be treated in a dose escalation protocol to determine the maximal tolerated dose of the ECPT formulation. […] For the purpose of this invention, "AUC" is defined as "area under the curve" and "CpMax" is defined as "the maximum plasma concentrate at the end of I.V.

DNA single-strand breaks = settings: cells exposed to HECPT; cited from earlier work
P388 tumor = settings: intermittent bolus days 1, 5, 9, i.p.; cited from earlier work
topoisomerase I [13] = settings: cited from earlier work
L1210 leukemia = settings: 10-100 mg/kg intraperitoneally; cited from earlier work
MOLT3 cells = settings: cited from earlier work
topoisomerase I [14] = settings: P388 cells; cited from earlier work
[15] = U.S. Pat. No. 4,713,246; cited from earlier work
[16] = cited from earlier work; remark: listed apart in the source
[17] = first Rothenberg line, no dose given

CC[C@@]1(O)C(=O)OCc2c1cc1n(c2=O)Cc2cc3cc4c(cc3nc2-1)OCO4 [10,11 methylene dioxycamptothecin, 10,11 methylenedioxy camptothecin]
antitumor activity in preclinical studies (preclinical tumor models): very active

CC[C@@]1(O)C(=O)OCc2c1cc1n(c2=O)Cc2cc3ccccc3nc2-1 [lactone form of camptothecin]
antitumor activity in preclinical studies (preclinical tumor models): significant antitumor activity | toxicity relative to sodium camptothecin [1]: 10 fold

CCC(O)(C(=O)O)c1cc2n(c(=O)c1CO)Cc1cc3ccccc3nc1-2 (stereo not drawn) [sodium camptothecin]
toxicity in Phase II studies [2]: unpredictable and severe myelosuppression, gastrointestinal toxicity, hemorrhagic cystitis, and alopecia

CCc1c2c(nc3ccc(OC(=O)N4CCC(N5CCCCC5)CC4)cc13)-c1cc3c(c(=O)n1C2)COC(=O)[C@]3(O)CC [CPT-11, 7-Ethyl-10-[4-(1-piperidino)-1-piperidino]Carbonyloxy-Camptothecin]
Reported Toxicities: N/V (Small Cell Lung Cancer): 61.5% | Reported Toxicities: alopecia (Small Cell Lung Cancer): 40.0% | Reported Toxicities: diarrhea (Small Cell Lung Cancer): 53.8% | Response: CRs (Small Cell Lung Cancer): 2 CRs | Response: PRs (Small Cell Lung Cancer): 7 PRs | sensitivity of human tumors in relation to ability to produce HECPT (human tumors): independent of their ability to produce HECPT | Reported Toxicities [3]: Neutropenia, diarrhea | Reported Toxicities: pneumonitis [3]: 12.5% | Response (PRs) [3]: 7/15 | Response Rate [3]: 47% | Reported Toxicities [4]: anorexia, alopecia; also recorded: Neutropenia diarrhea; also recorded: nausea, vomiting | Response (PRs) [4]: 23/72 | Response Rate [4]: 31.9% | overall fractional concentration of the lactone species through a range of doses [5]: fairly constant | Reported Toxicities: N/V (Cervical cancer): 51% | Reported Toxicities: Neutropenia (Cervical cancer): 89% | Reported Toxicities: alopecia (Cervical cancer): 38.1% | Reported Toxicities: diarrhea (Cervical cancer): 39.1% | Response (complete responses) (Cervical cancer): SCR | Response: PR (Cervical cancer): 8 PR | Reported Toxicities: NN (Colon cancer): 35% | Reported Toxicities: Neutropenia (Colon cancer): 53% | Reported Toxicities: diarrhea (Colon cancer): 24% | Response (PR) (Colon cancer): 6/17 | Response Rate (Colon cancer): 46% | interpatient variability in AUC and metabolism to HECPT ([6]; 5-day continuous intravenous infusion): large range of interpatient variability | sporadic toxicities [7]: less sporadic toxicities | AUC ([8]; CPT-11 50 mg/m^2/wkx4): 2970 ng·h/mL | CpMax ([8]; CPT-11 50 mg/m^2/wkx4): 1.70 µg/mL | AUC ([8]; CPT-11 100 mg/m^2/wkx4): 2230 ng·h/mL | CpMax ([8]; CPT-11 100 mg/m^2/wkx4): 1.29 µg/mL | AUC ([8]; CPT-11 150 mg/m^2/wk X4): 2810 ng·h/mL | CpMax ([8]; CPT-11 150 mg/m^2/wk X4): 1.56 µg/mL | AUC ([8]; CPT-11 180 mg/m^2/wk X4): 3830 ng·h/mL | CpMax ([8]; CPT-11 180 mg/m^2/wk X4): 1.97 µg/mL | AUC [8, 17]: 1130 ng·h/mL | CpMax [8, 17]: 0.89 µg/mL | Toxicity (Tumor; Clavel et al, 90 min. QDx3 Q21 days, 115 mg/m^2/d (33-115)): Neutropenia* diarrhea; also recorded: nausea and vomiting; also recorded: alopecia | Tumor Type (responses) (Tumor; Clavel et al, Breast): 1 PR | Tumor Type (responses) (Tumor; Clavel et al, Mesothelioma): 1 PR | Toxicity (Tumor; Culine et al, 90 min. Q21 days, 150 mg/m^2/wk (50-150)): Neutropenia* diarrhea*; also recorded: vomiting, alopecia; also recorded: fatigue stomatitis | Tumor Type (responses) (Tumor; Culine et al, cervix): 1 PR | Tumor Type (responses) (Tumor; Culine et al, esophagus): 1 PR | Tumor Type (responses) (Tumor; Culine et al, ovarian): 1 PR | Tumor Type (responses) (Tumor; Culine et al, renal): 1 PR | Toxicity (Tumor; Negoro et al, 30 min infusion, 100 mg/m^2 (50-150)): Diarrhea*, N/V | Tumor Type (responses) (Tumor; Negoro et al, NS CLC): 2 PRs | Tumor Type (responses) (Tumor; Ohe et al, 120 hr CI): None | Toxicity (Tumor; Rothenberg et al, 90 mg QWx4 Q42 days, 180 mg/m^2/wk (50-180)): Neutropenia, nausea; also recorded: vomiting, alopecia | Tumor Type (responses) (Tumor; Rothenberg et al, Colon Ca): 2 PRs | Toxicity (Tumor; Rowinsky et al, 90 min infusion Q21 day, 240 mg/m^2 (100-345)): Neutropenia* vomiting; also recorded: diarrhea abd. pain; also recorded: flushing | Tumor Type (responses) (Tumor; Rowinsky et al, Cervix Ca): 1 PR | Tumor Type (responses) (Tumor; Rowinsky et al, Colon Ca): 1 PR | Fractional amount of lactone species, CpMax Based ([9]; single dose I.V. CPT-11 50 mg/m^2): 0.51 | Fractional amount of lactone species, CpMax Based ([9]; single dose I.V. CPT-11 80 mg/m^2): 0.44 | Fractional amount of lactone species, CpMax Based ([9]; single dose I.V. CPT-11 100 mg/m^2): 0.53 | Fractional amount of lactone species, CpMax Based ([9]; single dose I.V. CPT-11 125 mg/m^2): 0.55 | Fractional amount of lactone species, CpMax Based ([9]; single dose I.V. CPT-11 150 mg/m^2): 0.42 | Fractional amount of lactone species, CpMax Based ([9]; single dose I.V. CPT-11 180 mg/m^2): 0.42 | inhibition of purified topoisomerase I [10]: inhibited | Response Rate (RR) (Leukemia/Lymphoma; 20 mg/m^2 bid x7): 25% | Response Rate (PR) (Leukemia/Lymphoma; 40 mg/m^2 Q0x5): 34% | Response Rate (Leukemia/Lymphoma; 200 mg Q3): No resp. | Reported Toxicities: Gastrointestinal (Leukemia/Lymphoma; in vivo): 76% | Reported Toxicities: Neutropenia (Leukemia/Lymphoma; in vivo): 91% | Reported Toxicities (Leukemia/Lymphoma; incidence not given): Thrombocytopenia

CCc1c2c(nc3ccc(O)cc13)-c1cc3c(c(=O)n1C2)COC(=O)[C@]3(O)CC [HECPT, 10-hydroxy 7-ethyl camptothecin]
plasma concentration of HECPT in mice [11]: maintained longer after CPT-11 administration than after treatment with HECPT | CpMax of HECPT with increases in dose of CPT-11 [12]: decrease | greatest quantitative biochemical effect (DNA single-strand breaks): DNA single-strand breaks that occur during the S-phase | anti-tumor activity compared to CPT-11 in vivo (P388 tumor): little anti-tumor activity | overall fractional concentration of the lactone species through a range of doses [5]: fairly constant | AUC ([6]; CPT-11 25 mg/m^2/dx5): 1080 ng·h/mL | CpMax ([6]; CPT-11 25 mg/m^2/dx5): 0.0104 µg/mL | AUC ([6]; CPT-11 30 mg/m^2/dx5): 960 ng·h/mL | AUC ([6]; CPT-11 35 mg/m^2/dx5): 910 ng·h/mL | CpMax ([6]; CPT-11 35 mg/m^2/dx5): 0.0068 µg/mL | AUC ([6]; CPT-11 40 mg/m^2/dx5): 860 ng·h/mL | CpMax ([6]; CPT-11 40 mg/m^2/dx5): 0.0080 µg/mL | toxicity of HECPT relative to CPT-11 (suggested) ([6]; Ohe et al.): more toxic moiety | correlation between HECPT pharmacokinetics and dose or CPT-11 pharmacokinetics and toxicity ([6]; human subjects): lack of correlation | reversibility of cleavable complex stabilization (topoisomerase I [13]): readily reversible | results relative to CPT-11 under the same conditions (L1210 leukemia): inferior | AUC ([8]; CPT-11 50 mg/m^2/wkx4): 195.5 ng·h/mL | CpMax ([8]; CPT-11 50 mg/m^2/wkx4): 0.0393 µg/mL | AUC ([8]; CPT-11 100 mg/m^2/wkx4): 214.8 ng·h/mL | CpMax ([8]; CPT-11 100 mg/m^2/wkx4): 0.0316 µg/mL | AUC ([8]; CPT-11 150 mg/m^2/wk X4): 123.2 ng·h/mL | CpMax ([8]; CPT-11 150 mg/m^2/wk X4): 0.0367 µg/mL | AUC ([8]; CPT-11 180 mg/m^2/wk X4): 232.8 ng·h/mL | CpMax ([8]; CPT-11 180 mg/m^2/wk X4): 0.0262 µg/mL | AUC [8, 17]: 62.2 ng·h/mL | potency in generating single-strand DNA breaks relative to CPT-11 (MOLT3 cells): approximately 1000 fold | inhibitory activity against topoisomerase I relative to CPT-11 (topoisomerase I [14]): 3600 fold | inhibition of purified topoisomerase I [10]: inhibited

COc1cc([C@@H]2c3cc4c(cc3[C@@H](O[C@@H]3O[C@@H]5CO[C@@H](C)O[C@H]5[C@H](O)[C@H]3O)[C@H]3COC(=O)[C@H]23)OCO4)cc(OC)c1O [etoposide]
bioavailability following oral administration versus intravenous [15]: substantially equivalent

CC[C@@]1(O)C(=O)OCc2c1cc1n(c2=O)Cc2cc3c(CN(C)C)c(O)ccc3nc2-1 [topotecan]
activity relative to parent compound ([7]; human, in vivo): retain significant activity of the parent compound | sporadic toxicities [7]: less sporadic toxicities

CCc1c2c(nc3ccccc13)-c1cc3c(c(=O)n1C2)COC(=O)C3(O)CC (stereo not drawn) [ECPT, 7-ethyl camptothecin]
antitumor activity in preclinical studies (preclinical tumor models): broad anticancer activity | solubility in water [16]: insufficiently water soluble for clinical use | inhibition of Topoisomerase I (topoisomerase I [13]): potent inhibitor | results relative to CPT-11 under the same conditions (L1210 leukemia): inferior
